Where two headings read alike, the source gives them in different places.
How the values were obtained:
IMP-1 = IMP-1 (Serratia marcescens, UniProt P52699); assay: Enzyme activity: determination of IC50, fluorescence assay with CCF2-FA substrate; assay type: biochemical; details: CCF2-FA 1.25 μM, 2 hours at 25° C., read-out: IMP1 IC50
Procedure, shortened: (§1)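 Enzyme (1 pM NDM-1, 2 pM IMP-1, 30 pM VIM-1) incubated with inhibitor (20 to 0.00063 μM) and 1.25 μM CCF2-FA in 100 mM KH2PO4 pH 7, 0.005% Tween-20, 10 μM ZnSO4, 2 h at 25 °C. Fluorescence read at 460 nm (ex 405 nm); IC50 by 4-parameter fit.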

VIM-1 = VIM-1 (Pseudomonas aeruginosa, UniProt A0A0F7KYQ8); assay: as above; assay type: biochemical; details: CCF2-FA 1.25 μM, 2 hours at 25° C., read-out: VIM1 IC50
Procedure, shortened: as §1

NDM-1 = NDM-1 (Klebsiella pneumoniae, UniProt C7C422); assay: as above; assay type: biochemical; details: CCF2-FA 1.25 μM, 2 hours at 25° C.
Procedure, shortened: as §1

[1] = system: Escherichia coli expressing NDM-1 (CLB30016); assay: Antibiotic potentiation activity: synergistic concentration (MITC95) with imipenem, growth by OD600; assay type: cell-based
Procedure, shortened: (§2)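 Strains grown overnight at 35° C, resuspended in saline, diluted 1:100 into 1.1×CAMHB; imipenem at 1 μg/ml or 4 μg/ml with test compound 200 μM to 0.195 μM. Incubated 22 hours to 24 hours at 35° C, OD600 read; MITC95 is lowest compound concentration inhibiting 95% of growth.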

[2] = system: Serratia marcescens expressing IMP-1 (CL5741); assay: as above; assay type: cell-based
Procedure, shortened: as §2

[3] = system: Klebsiella pneumoniae expressing VIM-1 (IHMA599644); assay: as above; assay type: cell-based
Procedure, shortened: as §2

[4] = 95% inhibition of bacterial growth, strain CLB30016
[5] = 95% inhibition of bacterial growth, strain CL5741
[6] = 95% inhibition of bacterial growth, strain IHMA599644
[7] = NDM-1 enzyme 1 pM, read-out: NDM1 IC50
[8] = E. coli CLB30016 (NDM-1), 95% inhibition of growth
[9] = S. marcescens CL5741 (IMP-1), 95% inhibition of growth
[10] = K. pneumoniae IHMA599644 (VIM-1), 95% inhibition of growth
[11] = enzyme 1 pM, read-out: NDM1 IC50

NDM-1, sequence (C7C422 29-270, looked up, species assumed): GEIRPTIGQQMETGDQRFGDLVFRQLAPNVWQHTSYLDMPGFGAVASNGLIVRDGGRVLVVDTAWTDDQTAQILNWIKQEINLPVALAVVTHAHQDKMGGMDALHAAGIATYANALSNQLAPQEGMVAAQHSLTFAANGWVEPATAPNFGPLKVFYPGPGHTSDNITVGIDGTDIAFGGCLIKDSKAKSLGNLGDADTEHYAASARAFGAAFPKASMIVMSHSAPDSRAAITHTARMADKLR
IMP-1, sequence (P52699 19-246, looked up, species assumed): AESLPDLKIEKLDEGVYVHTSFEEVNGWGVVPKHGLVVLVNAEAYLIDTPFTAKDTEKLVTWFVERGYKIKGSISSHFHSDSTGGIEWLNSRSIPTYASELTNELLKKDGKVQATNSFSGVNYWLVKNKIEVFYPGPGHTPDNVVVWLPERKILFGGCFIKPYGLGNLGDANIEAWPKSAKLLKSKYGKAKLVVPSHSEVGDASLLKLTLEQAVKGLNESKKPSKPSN

SMILES | IC50 (IMP-1; enzyme 2 pM) [nM] | IC50 (VIM-1; enzyme 30 pM) [nM] | IC50 (NDM-1; NDM1 IC50, enzyme 1 pM) [nM] | NDM1 EC30016 MITC95 [1, 4] [µM] | IMP1 SM5741 MITC95 [2, 5] [µM] | VIM1 KP599644 MITC95 [3, 6] [µM] | IC50 (IMP-1; IMP-1 enzyme 2 pM) [nM] | IC50 (VIM-1; VIM-1 enzyme 30 pM) [nM] | IC50 (NDM-1; [7]) [nM] | NDM1 EC30016 MITC95 [1, 8] [µM] | IMP1 SM5741 MITC95 [2, 9] [µM] | VIM1 KP599644 MITC95 [3, 10] [µM] | IC50 (NDM-1; [11]) [nM]
CC(C)C[C@H](C(=O)O)[C@H](Cc1ccc(C2=CCNCC2)cn1)c1nn[nH]n1 [Example 170, (2S)-4-methyl-2-[(1S)-2-(1′,2′,3′,6′-tetrahydro-3,4′-bipyridin-6-yl)-1-(2H-tetrazol-5-yl)ethyl]pentanoic acid] | 3600 | 22 | 250 | 1.6 | 50 | 12.5 |  |  |  |  |  |  | 
CC(C)C[C@H](C(=O)O)[C@H](Cc1ccc(CN2CCNCC2)c(F)c1)c1nn[nH]n1.O=C(O)C(F)(F)F [Example 446, 4-(4-((2S,3S)-3-carboxy-5-methyl-2-(2H-tetrazol-5-yl)hexyl)-2-fluorobenzyl)piperazin-1-ium 2,2,2-trifluoroacetate] |  |  |  |  |  |  | 380 | 6.94 | 170 | 12.5 | 18.75 | 25 | 
CCC[C@H](C(=O)O)[C@H](Cc1ccccc1F)c1nnn[nH]1 [Example 259, (S)-2-((S)-2-(2-fluorophenyl)-1-(1H-tetrazol-5-yl)ethyl)pentanoic acid] |  |  |  |  |  |  | 930 | 4.2 | 37 | 9.4 | 12.5 | 12.5 | 
CCC[C@H](C(=O)O)[C@H](Cc1ccc(N2CCN(C(C)=O)CC2)cc1)c1nn[nH]n1 [Example 228, (2S)-2-[(1S)-2-[4-(4-acetylpiperazin-1-yl)phenyl]-1-(2H-tetrazol-5-yl)ethyl]pentanoic acid] | 220 | 15 |  | 75 | 16 | 200 |  |  |  |  |  |  | 33
CCC[C@H](C(=O)O)[C@H](Cc1ccc(C#N)cn1)c1nnn[nH]1 [Example 84, (2S)-2-[(1S)-2-(5-cyanopyridin-2-yl)-1-(1H-tetrazol-5-yl)ethyl]pentanoic acid] | > 20000 | 47 |  | 18.8 | >200 | 50 |  |  |  |  |  |  | 1200
CC(C)[C@H](C(=O)O)[C@H](Cc1ccc(NC(CO)CO)nc1)c1nnn[nH]1 [Example 141, (2S,3S)-4-(6-((1,3-dihydroxypropan-2-yl)amino)pyridin-3-yl)-2-isopropyl-3-(1H-tetrazol-5-yl)butanoic acid] | > 20000 | 800 |  | 12.5 | >200 | 150 |  |  |  |  |  |  | 3600
CCC[C@H](C(=O)O)[C@H](Cc1cccc(N2CCOCC2)c1)c1nn[nH]n1 [Example 365, (2S)-2-[(1S)-2-(3-morpholin-4-ylphenyl)-1-(2H-tetrazol-5-yl)ethyl]pentanoic acid] |  |  |  |  |  |  | 1500 | 20 | 82 | 38 | 38 | 50 | 
CC(C)[C@H](C(=O)O)[C@H](Cc1ccc(-c2ccc(CN)cc2)cc1)c1nnn[nH]1 [Example 74, (2S,3S)-4-(4′-(aminomethyl)-[1,1′-biphenyl]-4-yl)-2-isopropyl-3-(1H-tetrazol-5-yl)butanoic acid] | 110 | 18 |  | 3.1 | 1.6 | 12.5 |  |  |  |  |  |  | 34
CCC[C@H](C(=O)O)[C@H](Cc1ccc(C(=O)N2CCC(N)CC2)cc1)c1nnn[nH]1 [Example 278, (2S)-2-[(1S)-2-{4-[(4-aminopiperidin-1-yl)carbonyl]phenyl}-1-(1H-tetrazol-5-yl)ethyl]pentanoic acid] |  |  |  |  |  |  | 200 | 120 | 10 | 12.5 | 6.2 | 50 | 
CCC[C@H](C(=O)O)[C@H](Cc1ccc(C(F)(F)F)cc1)c1nnn[nH]1 [Example 153, (S)-2-((S)-1-(1H-tetrazol-5-yl)-2-(4-(trifluoromethyl)phenyl)ethyl)pentanoic acid] | 510 | 2.1 |  | 9.4 | 25 | 25 |  |  |  |  |  |  | 58
CCC[C@H](C(=O)O)C(Cc1cccc(C(F)(F)F)c1)c1nnn[nH]1 (stereo in doubt) [Example 267, (2S)-2-{(1S)-1-(1H-tetrazol-5-yl)-2-[3-(trifluoromethyl)phenyl]ethyl}pentanoic acid] |  |  |  |  |  |  | 280 | 0.86 | 14 | 9.4 | 9.4 | 18.8 | 
CC(C)[C@H](C(=O)O)[C@H](Cc1ccc(C2CCNC2)cc1)c1nnn[nH]1 (stereo partly drawn) [Example 78, (2S,3S)-2-isopropyl-4-(4-(pyrrolidin-3-yl)phenyl)-3-(1H-tetrazol-5-yl)butanoic acid] | 460 | 4.5 |  | 3.1 | 6.2 | 6.2 |  |  |  |  |  |  | 23
CCC[C@H](C(=O)O)[C@H](Cc1ccc2ncc(N)cc2c1)c1nnn[nH]1 [Example 148, 3-amino-6-((2S,3S)-3-carboxy-2-(1H-tetrazol-5-yl)hexyl)quinolin-1-ium] | 400 | 0.94 |  | 25 | 12.5 | 25 |  |  |  |  |  |  | 25
CCC[C@H](C(=O)O)[C@H](Cc1ccc(N)cn1)c1nnn[nH]1 [Example 111, (S)-2-((S)-2-(5-aminopyridin-2-yl)-1-(1H-tetrazol-5-yl)ethyl)pentanoic acid] | 7700 | 77 |  | 0.49 | 44 | 5.5 |  |  |  |  |  |  | 230
CCC[C@H](C(=O)O)[C@H](Cc1ccc(NCCS(N)(=O)=O)cn1)c1nnn[nH]1 [Example 149, 2-((2S,3S)-3-carboxy-2-(1H-tetrazol-5-yl)hexyl)-5-((2-sulfamoylethyl)amino)pyridin-1-ium] | 1600 | 98 |  | 0.39 | 38 | 18.8 |  |  |  |  |  |  | 170
CCC[C@H](C(=O)O)[C@H](Cc1ccnc(N)c1)c1nnn[nH]1 [Example 118, (2S)-2-[(1S)-2-(2-aminopyridin-4-yl)-1-(1H-tetrazol-5-yl)ethyl]pentanoic acid] | > 20000 | 10 |  | 2.3 | 200 | 6.2 |  |  |  |  |  |  | 1100
CCC[C@H](C(=O)O)[C@H](Cc1ccc(NCCN2CCCCC2)cc1)c1nn[nH]n1 [Example 217, (2S)-2-[(1S)-2-{4-[(2-piperidin-1-ylethyl)amino]phenyl}-1-(2H-tetrazol-5-yl)ethyl]pentanoic acid] | 2400 | 38 |  | 12.5 | 50 | 50 |  |  |  |  |  |  | 500
CCC[C@H](C(=O)O)[C@H](Cc1ccc(NCCN2CCOCC2)cc1)c1nn[nH]n1 [Example 216, (2S)-2-[(1S)-2-{4-[(2-morpholin-4-ylethyl)amino]phenyl}-1-(2H-tetrazol-5-yl)ethyl]pentanoic acid] | 490 | 110 |  | 31 | 18.8 | 150 |  |  |  |  |  |  | 140
CCC[C@H](C(=O)O)[C@H](Cc1cccc(-c2ccc(C(=O)NC)cc2)c1)c1nn[nH]n1 [Example 344, (2S)-2-[(1S)-2-[4′-(methylcarbamoyl)biphenyl-3-yl]-1-(2H-tetrazol-5-yl)ethyl]pentanoic acid] |  |  |  |  |  |  | 28 | 1.7 | 14 | 38 | 0.59 | 50 | 
CCC[C@H](C(=O)O)[C@@H](Cc1ccc(-c2ccc3c(c2)OCC(=O)N3)cn1)c1nnn[nH]1 [Example 182, (2S)-2-[(1R)-2-[5-(3-oxo-3,4-dihydro-2H-1,4-benzoxazin-7-yl)pyridin-2-yl]-1-(1H-tetrazol-5-yl)ethyl]pentanoic acid] | 16000 | 330 |  | 150 | >200 | >200 |  |  |  |  |  |  | 1000
